We go through eight molecules from PMC4157579, “Lysine Acetylation Controls Local Protein Conformation by Influencing Proline Isomerization” (Molecular Cell, 2014).

The subject of test [1] is Spt7 bromodomain (residues 363–619). In words: SPR binding of H3 peptides to immobilized Spt7 bromodomain. Details: species or system yeast. Conditions: for Binding to Spt7 bromodomain: SPR, Biacore T100/T200, 25°C, peptides 1-200 µM in HBS-P+, NTA chip-captured His-tagged bromodomain, 1:1 model, Figure 6A, n = 2–11. The text has this: (§1) We developed a second assay that involves monitoring the effect of the P16V substitution on the binding of the Spt7 bromodomain to an H3 peptide modified by acetylation at K14 and/or K18 using surface plasmon resonance (SPR) (Figures 6A, S4A, and S4B) or by pull downs (Figures 6B and S4C). Bromodomains are acetyl-lysine binding domains, found in a number of chromatin-associated proteins ([Taverna et al., 2007]) including Spt7. The function and binding specificity of the Spt7 bromodomain are currently unknown, but it preferentially interacts with hyperacetylated histones in vitro ([Hassan et al., 2007]). […] The binding of the Spt7 bromodomain to the P16V-substituted K18ac peptide improved binding by ∼2-fold. […] We reasoned that this could reflect an effect of the side chain on binding or an influence on the conformation of the A15-P16 bond. […] The corollary of this is that acetylation of K14 would correlate with the A15-P16 bond in the trans configuration, supporting ideas that the peptidyl-prolyl bond conformation is mainly determined by local effects in proteins ([Reimer et al., 1998]).
(§2) Figure 6 K14ac Promotes P16trans (A) Relative binding ± SEM (n = 2–11) assessed by surface plasmon resonance of purified recombinant Spt7 bromodomain (residues 363–619) to the indicated H3 peptides (11–26). (B) Coomassie-stained gel showing a pull-down experiment, quantified relative to the K18ac peptide, with the indicated H3 peptides and the purified recombinant Spt7 bromodomain (n = 3). (C) A chymotrypsin-coupled assay for proline isomers using synthetic hexamers based on GGKAPF-pNA (unmodified). pNA is released by chymotrypsin cleavage only from the trans-proline-containing peptide. (D) K14ac and substitutions at K14 influence isomerization at A15-P16 and pNA release, expressed as mean initial rate ± SEM (n = 4–5) over the first 0.6–10.2 s of the reaction. (E) Schematic showing how K14ac or the K14R substitution influence A15-P16 conformation. (F) Schematic showing how dynamic K14ac influences A15-P16 conformation and K4me3 (K4 and K14 denote that these residues are not trimethylated or acetylated respectively). (G) The balance of positive-acting factors (right panel) and negative-acting factors (left panel) controls levels of K4me3 at individual genes. […] See also Figure S4. […]
(n=5771) with the ratios of H3-normalised K4me3 in the K14A and P16V strains relative to the WT strain. Genes with ratios > 2 (n = 7 and 4 for K14A/WT and P16V/WT respectively) have been removed for clarity. Highlighted are the genes with the 200 highest and lowest ratios selected for further analysis (K14/P16-independent and K14/P16-dependent gene classes respectively). (C) Overlap (%) between the four selected gene classes from Figure S3B and the genes temporally expressed during the yeast metabolic cycle (YMC: OX, oxidative; R/B, reductive building; R/C, reductive charging phase), induced/repressed by the environmental stress response (ESR), classed as ribosomal protein genes (RPGs) or ribosome biogenesis genes (Ribis), or regulated predominantly by SAGA or TFIID. […]
YMC and ESR expression data were taken from (Tu et al., 2005) and (Gasch et al., 2000) respectively. SAGA/TFIID-regulated genes were obtained from (Huisinga and Pugh, […]
Figure S4. (Related to Figure 6)
(A) Surface plasmon resonance (SPR) affinity fits for the indicated H3 peptides encompassing residues 11-26 binding to the Spt7 bromodomain (residues 363-619). Also shown is a typical sensorgram of H3 peptide binding to the Spt7 bromodomain […]
values ± SEM for Spt7 binding to variously-modified H3 peptides. (C) A peptide pull-down experiment with a range of H3 peptides and the WT or substituted Spt7 bromodomain […]
Peptides for bromodomain interaction studies
Peptides were synthesized at GL Biochem (Shanghai) LTD, China and Proteogenix, France.
(§3) Purity was determined with MALDI-TOF mass spectrometry and HPLC and the peptides used […]
The peptide sequences are listed in the […]
A general note: Surface plasmon resonance follows binding to a sensor surface in real time, without labels.

Test [2] has the same test system. As to the kind of experiment: Peptide pull-down with Spt7 bromodomain. The class given is binding, yeast. The conditions noted are these: SulfoLink resin, bromodomain 30 µg/ml, 2 h at 4°C, Coomassie gel, relative to K18ac peptide, Figure 6B, n = 3.
Description: as §1, §2
(n=5771) with the ratios of H3-normalised K4me3 in the K14A and P16V strains relative to the WT strain. Genes with ratios > 2 (n = 7 and 4 for K14A/WT and P16V/WT respectively) have been removed for clarity. Highlighted are the genes with the 200 highest and lowest ratios selected for further analysis (K14/P16-independent and K14/P16-dependent gene classes respectively). […]
as §3

In test [3] the target is T1, Spt7 bromodomain (residues 363–619) (UniProt P35177 363-619).
T1 construct: Spt7, bromodomain construct, amino acids 363-619; also called purified recombinant Spt7 bromodomain; source: recombinant, expressed and purified as described (Boubriak et al., 2009)
T1 sequence (looked up): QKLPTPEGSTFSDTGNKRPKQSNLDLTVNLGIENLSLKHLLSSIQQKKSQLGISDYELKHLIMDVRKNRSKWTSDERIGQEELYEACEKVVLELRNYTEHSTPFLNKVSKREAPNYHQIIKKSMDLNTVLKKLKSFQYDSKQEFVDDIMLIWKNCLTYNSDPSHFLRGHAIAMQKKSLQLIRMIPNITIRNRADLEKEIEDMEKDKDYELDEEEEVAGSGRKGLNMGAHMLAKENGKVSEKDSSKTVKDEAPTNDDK
As to the kind of experiment: SPR; peptides binding to immobilized Spt7 bromodomain; Biacore T100 and T200, 25°C; 1:1 binding model; relative binding. Conditions: both partners purified.

Ends that are not written are not given here.

In the case of “TGG(Kac)APR(Kac)QLASKAARC [peptide acetylated at both K14 and K18]”, the “Binding to Spt7 bromodomain” value in test [1] is listed as “binding to the Spt7 bromodomain similar to the P16V-K18ac peptide”.

For the molecule “TGG(Kac)APRKQLASKAARC [peptide acetylated at K14, H3 peptide (11–26) acetylated at K14, for bromodomain studies]”, the “Binding to Spt7 bromodomain” value in test [1] and in test [2] was “lack of binding” throughout. On to “TGGKAPRKQLASKAARC [unmodified H3 peptide, H3 peptide (11–26), unmodified, for bromodomain studies]”, for which the “Binding to Spt7 bromodomain” value in test [1] and in test [2] was “lack of binding” each time. As to “TGGKAVR(Kac)QLASKAARC [P16V-K18ac, H3 peptide (11–26), P16V, acetylated K18]”, in test [1] (P16V-substituted versus K18ac peptide, SPR (text does not say whether SPR or pull-down), 25°C), the “Improvement of binding to Spt7 bromodomain on P16V substitution” value is listed as approximately 2 fold. Regarding “TGGRAPR(Kac)QLASKAARC [K14R-K18ac, H3 peptide (11–26), K14R, acetylated K18]”, the “Binding to Spt7 bromodomain” value in test [1] is “no binding was observed”. On the same count and under the same terms, as for “TGGRAVR(Kac)QLASKAARC [valine substitution at P16 in the K14R-K18ac peptide]”, the entry is “restored binding at levels between the P16V-K18ac and K18ac peptides”.

B1: K14R-K18ac H3 peptide (11–26) with a valine substitution at P16 (peptide, UniProt P61830 12-27, looked up)
peptide: TGGRAVRK(Ac)QLASKAAR
notes: histone H3, residues 11-26; also called K14R-P16V-K18ac peptide; source: synthetic peptide (GL Biochem and Proteogenix)
As for B1, the binding result in test [3] was “binds”.

B2: P16V-substituted K18ac H3 peptide (11–26) (peptide, UniProt P61830 12-27, looked up)
peptide: TGGKAVRK(Ac)QLASKAAR
notes: histone H3, residues 11-26; also called P16V-K18ac peptide; P16V-K18ac; source: synthetic peptide (GL Biochem and Proteogenix)
Consider B2, for which the “fold change of binding against the K18ac peptide” value in test [3] was approximately 2 fold.
